Like-named read-outs stand apart in the source and are kept apart here.
Assays:
[1] = test system: S. aureus (ATCC 6538; Gram positive bacteria); experiment: Zone of inhibition test against S. aureus; format: cell-based, Staphylococcus aureus; details: for zone of inhibition at 1000 µg/mL / zone of inhibition at 10000 µg/mL: Staphylococcus aureus
Procedure: (§1) Natural compounds were evaluated for anti-microbial activity using the zone of inhibition test (ASTM E214901). The activity against five types of microorganisms: Staphylococcus aureus, Pseudomonas aeruginosa, Escherichia coli, Aspergillis niger and Candida albicans, was evaluated. These microorganisms represent gram positive and gram negative bacteria, fungi and yeast.
(§2) The compounds were tested for activity against E. coli (ATCC 8739; Gram negative bacteria), S. aureus (ATCC 6538; Gram positive bacteria), P. aeruginosa (ATCC 9027; Gram negative bacteria), C. albicans (ATCC 10231; yeast) and A niger (ATCC 16404; fungus) at 1 and 10 mg/ml concentrations by using the zone of inhibition method along with triclosan as a positive control.
(§3) The following natural compounds were tested for their anti-fungal properties: eucalyptol, cineole (SIGMA C-8144); gallic acid, 3,4,5-trihydroxybenzoic acid (SIGMA G-7384); methyl jasmonate, 95% (Aldrich 39270-7); and naringin: >95%, made from citrus fruit (SIGMA N-1376). A DMSO/water (75/25 by volume) mixture was used as the carrying solvent for each compound tested. The compounds were tested at 1 and 10 mg/ml concentrations by using the zone of inhibition method along with triclosan as a positive control.
(§4) Microorganism cultures of 10^5 cfu (colony forming units)/ml in a 1×PBS (phosphate buffered saline) solution were used. One ml of the solution was plated on a trypticase soy agar plate (TSA) and allowed to grow at 35° C. for four hours. 4 mm diameter wells were then punched in each TSA plate and 100 μl of each compound being tested was added to these wells. The plates were incubated overnight at 35° C. Lawn clearing was measured the next day as an indicator of antimicrobial activity.

[2] = test system: P. aeruginosa (ATCC 9027; Gram negative bacteria); experiment: Zone of inhibition test against P. aeruginosa; format: cell-based, Pseudomonas aeruginosa; details: for zone of inhibition at 1000 µg/mL / zone of inhibition at 10000 µg/mL: Pseudomonas aeruginosa
Procedure: as §1, §2, §3, §4

[3] = test system: A niger (ATCC 16404; fungus); experiment: Zone of inhibition test against A. niger; format: cell-based, Aspergillis niger; details: for zone of inhibition at 1000 µg/mL / zone of inhibition at 10000 µg/mL: Aspergillus niger
Procedure: as §1, §2, §3, §4

[4] = test system: Lactobacillus acidophilus (ATCC 11975); experiment: Zone of inhibition test against Lactobacillus acidophilus; format: cell-based; details: sample size 100 μl; for Zone of Inhibition: duplicate
Procedure: as §4
Five of these compounds were tested against Lactobacillus acidophilus (ATCC 11975). None of the compounds tested had antimicrobial activity against lactobacilli, a microorganism normally found in humans, specifically in the vagina. Due to their ability to derive lactic acid from glucose, these bacteria create an acidic environment that inhibits growth of many bacterial species that can lead to urogenital infections. Lactobacillus is generally harmless to humans, rarely inciting harmful infections or diseases. Thus, these compounds can be effectively utilized to develop products to address infections arising from Candida, Aspergillus and related species without destroying the normal balance of microbial species found in human gastrointestinal tract.
Gallic acid, 3,4,5-trihydroxybenzoic acid (SIGMA G-7384); eucalyptol, cineole (SIGMA C-8144); naringin: >95%, made from citrus fruit (SIGMA N-1376), and methyl jasmonate, 95% (Aldrich 39270-7) were tested in two concentrations (1 and 10 mg/ml) in DMSO:water (75:25) along with positive control (chlorhexidine 5 mg/ml in 75:25 DMSO:water) and a negative control (75:25 DMSO:water). All tests were conducted in duplicate in a zone of inhibition study (as described in Example 1).

[5] = test system: C. albicans (ATCC 10231; yeast); experiment: Zone of inhibition test against C. albicans; format: cell-based, Candida albicans; details: for zone of inhibition at 1000 µg/mL / zone of inhibition at 10000 µg/mL: Candida albicans; for Selective inhibition of C. albicans (conclusion in words): zone of inhibition, five organisms tested, 1 and 10 mg/ml
Procedure: as §1, §2, §3, §4

[6] = test system: E. coli (ATCC 8739; Gram negative bacteria); experiment: Zone of inhibition test against E. coli; format: cell-based, Escherichia coli; details: for zone of inhibition at 1000 µg/mL / zone of inhibition at 10000 µg/mL: Escherichia coli
Procedure: as §1, §2, §3, §4

[7] = ATCC6538, concentration 1 mg/ml, 100 μl per well, DMSO/water 75/25, read-out: Zone of inhibition S. aureus
[8] = ATCC6538, concentration 10 mg/ml, 100 μl per well, DMSO/water 75/25
[9] = ATCC9027, concentration 1 mg/ml, 100 μl per well, DMSO/water 75/25, read-out: Zone of inhibition P. aeruginosa
[10] = ATCC9027, concentration 10 mg/ml, 100 μl per well, DMSO/water 75/25
[11] = ATCC16404, concentration 1 mg/ml, 100 μl per well, DMSO/water 75/25, read-out: Zone of inhibition A. niger
[12] = ATCC16404, concentration 10 mg/ml, 100 μl per well, DMSO/water 75/25
[13] = 1 mg/ml in DMSO:water 75:25, inoculum 5.8 × 10^5 CFU/ml
[14] = 10 mg/ml in DMSO:water 75:25, inoculum 5.8 × 10^5 CFU/ml
[15] = ATCC10231, concentration 1 mg/ml, 100 μl per well, DMSO/water 75/25, read-out: Zone of inhibition C. albicans
[16] = ATCC10231, concentration 10 mg/ml, 100 μl per well, DMSO/water 75/25
[17] = ATCC8739, concentration 1 mg/ml, 100 μl per well, DMSO/water 75/25, read-out: Zone of inhibition E. coli
[18] = ATCC8739, concentration 10 mg/ml, 100 μl per well, DMSO/water 75/25
[19] = concentration 1 mg/ml, 100 μl per well, DMSO/water 75/25
[20] = concentration 10 mg/ml, 100 μl per well, DMSO/water 75/25

| Structure (SMILES) | zone of inhibition at 1000 µg/mL [1, 7] [mm] | zone of inhibition at 10000 µg/mL [1, 8] [mm] | zone of inhibition at 1000 µg/mL [2, 9] [mm] | zone of inhibition at 10000 µg/mL [2, 10] [mm] | zone of inhibition at 1000 µg/mL [3, 11] [mm] | zone of inhibition at 10000 µg/mL [3, 12] [mm] | Zone of Inhibition [4, 13] | Zone of Inhibition [4, 14] | zone of inhibition at 1000 µg/mL [5, 15] [mm] | zone of inhibition at 10000 µg/mL [5, 16] [mm] | Selective inhibition of C. albicans (conclusion in words) [5] | zone of inhibition at 1000 µg/mL [6, 17] [mm] | zone of inhibition at 10000 µg/mL [6, 18] [mm] | Zone of inhibition S. aureus [1, 19] [mm] | Zone of inhibition S. aureus [1, 20] [mm] | Zone of inhibition P. aeruginosa [2, 19] [mm] | Zone of inhibition P. aeruginosa [2, 20] [mm] | Zone of inhibition A. niger [3, 19] [mm] | Zone of inhibition A. niger [3, 20] [mm] | Zone of inhibition C. albicans [5, 19] [mm] | other results |
| --- | --- | --- | --- | --- | --- | --- | --- | --- | --- | --- | --- | --- | --- | --- | --- | --- | --- | --- | --- | --- | --- |
| CC12CCC(CC1)C(C)(C)O2 [Eucalyptol, 1,3,3-Trimethyl-2-oxabicyclo[2,2,2]-octane] | 0 | 0 | 0 | 0 | 0 | 0 | None | None | 3 | 3 | selective inhibitors of C. albicans with no effect on the other four organisms tested | 0 | 0 | – | – | – | – | – | – | – | – |
| C[C@@H]1O[C@@H](O[C@H]2[C@H](Oc3cc(O)c4c(c3)OC(c3ccc(O)cc3)CC4=O)O[C@H](CO)[C@@H](O)[C@@H]2O)[C@H](O)[C@H](O)[C@H]1O (stereo partly drawn) [Naringin, 7-[[2-O-(6-Deoxy-α-L-mannopyrano-syl)-β-D-glucopyranosyl]oxy]-2,3-dihydro-5-hydroxy-2-(4-hydroxyphenyl)-4H-1-benzopyran-4-one] | – | – | – | – | – | – | None | None | – | – | selective inhibitors of C. albicans with no effect on the other four organisms tested | – | – | 0 | 0 | 0 | 0 | 0 | 0 | 3 | Zone of inhibition C. albicans [5, 20]: 3.5 mm; Zone of inhibition E. coli [6, 19]: 0 mm; Zone of inhibition E. coli [6, 20]: 0 mm |
| CC/C=C\CC1C(=O)CCC1CC(=O)OC (centres unmarked) [Methyl jasmonate, methyl jasmonate] | – | – | – | – | – | – | None | None | – | – | selectively inhibit both C. albicans and A. niger | – | – | 0 | 2 | 0 | 0 | 0 | 5 | 0 | Selective inhibition of A. niger (conclusion in words) ([3]; zone of inhibition, five organisms tested, 1 and 10 mg/ml): selectively inhibit both C. albicans and A. niger; Zone of inhibition C. albicans [5, 20]: 7.5 mm; Zone of inhibition E. coli [6, 19]: 0 mm; Zone of inhibition E. coli [6, 20]: 0 mm |
| Oc1cc(Cl)ccc1Oc1ccc(Cl)cc1Cl [Triclosan, triclosan, reference compound] | – | – | – | – | – | – | – | – | – | – | – | – | – | – | – | – | – | – | – | – | zone of inhibition at 1000 µg/mL ([1]; ATCC6538, read-out: Zone of inhibition S. aureus): 10 mm; zone of inhibition at 1000 µg/mL ([2]; ATCC9027, read-out: Zone of inhibition P. aeruginosa): 0 mm; zone of inhibition at 1000 µg/mL ([3]; ATCC16404, read-out: Zone of inhibition A. niger): 10 mm; zone of inhibition at 1000 µg/mL ([5]; ATCC10231, read-out: Zone of inhibition C. albicans): 8.5 mm; zone of inhibition at 1000 µg/mL ([6]; ATCC8739, read-out: Zone of inhibition E. coli): 11 mm |
| O=C(O)c1cc(O)c(O)c(O)c1 [Gallic acid, 3,4,5-trihydroxybenzoic acid] | 0 | 0 | 0 | 0 | 0 | 0 | None | None | 5 | 4 | selective inhibitors of C. albicans with no effect on the other four organisms tested | 0 | 0 | – | – | – | – | – | – | – | – |
| [H]/N=C(\N/C(=N/[H])NCCCCCCNC(=N)NC(=N)Nc1ccc(Cl)cc1)Nc1ccc(Cl)cc1 [Positive control, chlorhexidine, reference compound] | – | – | – | – | – | – | – | – | – | – | – | – | – | – | – | – | – | – | – | – | zone of inhibition at 5000 µg/mL ([4]; Lactobacillus acidophilus, ATCC11975, positive control, chlorhexidine 5 mg/ml in 75:25 DMSO:water, inoculum 5.8 × 10^5 CFU/ml): 6 mm |

Source: patent US7258878B2, “Anti-microbial composition and methods of use thereof” (Kimberly-Clark Worldwide, Inc., priority 2004, dated 2007)
